Like-named read-outs stand apart in the source and are kept apart here.
Test system: phosphorylation of the serine 240/244 site of S6RP
Experiment: p70 S6K/AKT In Vivo Target Inhibition, U87MG xenograft, pS6
Set-up: species or system athymic nude mice
Conditions: Mus musculus, U-87 MG, IV Dose 12.5 mpk, U87MG tumors, read-out: p(S240) S6 - % inhibition
Method: U87MG human glioblastoma cells (5×106) are subcutaneously implanted into the flank of athymic nude mice in 0.2 mL of matrigel. Two weeks post-implantation, mice are dosed orally or parenterally according to a time course, single dose/single time point, or dose response protocol for the determination of TMED50 (threshold minimum effective dose). Tumors are flash frozen at harvest and blood is collected for the determination of parent compound plasma exposure and the calculation of TMEC50 (threshold minimum effective concentration) in the case of dose response studies. Tumors or tissues are pulverized in liquid N2 and lysed in 400 μL of XY Lysis Buffer (10 μg/mL Leupeptin, 10 μg/mL Trypsin-Chymotrypsin Inhibitor, 10 μg/mL Tosyl phenyl-alanyl chloromethyl ketone, 10 μg/mL Aprotinin, 60 mM Beta-Glycerol Phosphate, 1% Triton X100, 25 mM Tris pH 7.5, 2.5 mM Pyrophosphate, 150 mM NaCl, 2 mM p-tosyl-L-arginine methyl ester, 15 mM para-nitrophenyl phosphate, 5 mM Benzamidine, 1 mM Na Vanadate, 10 mM NaF, 50 μg/mL phenyl-methane sulfonyl fluoride, 1 mM 1,4-Dithiothreitol (DTT), 15 mM EDTA pH 8.0, 5 mM EGTA pH 8.0, 1 μM Microcystin, 1 μM Okadaic Acid, and 1 Roche Complete protease inhibitor mini-tablet per 10 mL) using Lysing Matrix D tubes (MP Biomedicals, Solon, Ohio, cat#6913-500) and a BIO101 Thermo Savant Fast Prep FP12. Lysates are aliquoted and either assayed immediately or stored at −80° C. for later testing. In Vivo Target Inhibition of p70 S6K and AKT is measured utilizing Meso Scale Discovery (Gaithersburg, Md.) ELISA technology to assess effects on phosphorylation of the serine 240/244 site of the downstream effector S6RP. Phosphorylation of p70 S6K(T389), AKT(5473) and GSK3β(S9) is also assessed using this technology in a multiplex format. In summary, 20 μg of lysate is added to carbon electrode containing 96-well plates pre-spotted with the appropriate capture antibodies. The protein of interest is probed using a ruthenium labeled detection antibody. Upon the passage of current over the electrode in the presence of read buffer containing the co-reactant TPA, electro-chemiluminescence results in the generation of light which is quantified and recorded using the MSD Sector 6000 instrument. For each study, percent inhibitions are calculated relative to the vehicle control group and ANOVA analysis is performed using the JMP software package for the determination of statistical significance.

In the case of CN(C)CCn1cc(-c2ccc(F)c(C(F)(F)F)c2)nc1C1CCN(c2ncnc3c2C(C)(C)C(=O)N3)CC1 [Example 31], the inhibition at 12.5 mg/kg (1 hr post IV dose) is reported as 79.2%, the inhibition at 12.5 mg/kg (2 hr post IV dose) is reported as 87.6% and the inhibition at 12.5 mg/kg (4 hr post IV dose) is reported as 94.9%. It also gave an inhibition at 12.5 mg/kg (6 hr post IV dose) of 91.7%, an inhibition at 12.5 mg/kg (8 hr post IV dose) of 96.4% and an inhibition at 12.5 mg/kg (24 hr post IV dose) of 45%.

Source: US8148387B2, “AKT and P70 S6 kinase inhibitors” (Eli Lilly and Company, priority 2008, dated 2012)
